From patent US12440479B2, “Prevention or treatment of chronic organ injury” (GEORG-AUGUST-UNIVERSITAET GOETTINGEN, STIFTUNG …, priority 2018, dated 2025)

How the values were obtained:
[1] = system: intrarenal ARNT and ALK3 transcription; settings: GSE1563; regimens including FK506 compared to CsA; cited from earlier work
ARNT dimers [2] = test: Native gel analysis of total kidney lysates after Arnt pulldown (UUO mice); format: in vivo; settings: UUO mice treated with FK506; without interaction with HIF1α, HIF2α or AHR
Description: (§1) Tissue and cells were homogenized in NP40 lysis buffer (Life technologies, Carlsbad, USA) supplemented with protease inhibitor cocktail (Roche, Basel, Switzerland). After sonication, protein samples were resolved by a 4-12% Bis-Tris polyacrylamide gel electrophoresis system (Novex, Carlsbad, USA) and transferred onto a nitrocellulose membrane (GE Healthcare, Freiburg, Deutschland), followed by a blocking step with 5% dry milk or 5% bovine serum albumin (BSA) in TBS-T (TBS pH 7.2, 0.1% Tween-20) to prevent unspecific bindings. After incubation with respective primary antibodies against ALK3 (ABD51, Merck Millipore, Billerica, USA) and ALK6 (ABD50, Merck Millipore, Billerica, USA), pSmad1/5/8 (13820, Cell Signaling, Danvers, USA), Arnt (3718, Cell Signaling, Danvers, USA), Fkbp12 (ab2918, Abcam Biochemicals, Cambridge, UK), NFATc1 (sc-7294, Santa Cruz Biotechnology, Dallas, USA), NFATc2 (sc-7295, Santa Cruz Biotechnology, Dallas, USA), β-actin (A5316, Sigma, St. Louis, USA) and Gapdh (5G4, HyTest, Turku, Finland), secondary HRP-conjugated antibodies were used (Dako, Glostrup, Denmark). Luminescence was detected by using chemiluminescent substrate (Cell Signaling, Danvers, USA) on a ChemiDoc XRS system (Bio-Rad, Hercules, USA). Native protein samples were prepared with Native PAGE Sample Prep kit (Novex, Carlsbad, USA) according to the manufacturer's instruction. […]

ARNT dimers [3] = test: Native gel electrophoresis of endogenous ARNT in TECs; format: cell-based, mouse; settings: TECs upon exposure to FK506
Description: as §1

[4] = FK506 blood concentration measurements (ELISA, whole blood); format: in vivo, mice
Method: FK506 concentration in whole blood samples of mice was measured using colorimetric FK506 Elisa Kit (Abnova, Taipei, […]) according to the manufacturer's protocol. Briefly, 25 μL of whole blood samples and standard solutions containing 0, 2, 10 and 50 ng/mL FK506 were analyzed by OD measurements at 450 nanometer (nm) wavelength.

C=CC[C@@H]1/C=C(\C)C[C@H](C)C[C@H](OC)[C@H]2O[C@@](O)(C(=O)C(=O)N3CCCC[C@H]3C(=O)O[C@H](/C(C)=C/[C@@H]3CC[C@@H](O)[C@H](OC)C3)[C@H](C)[C@@H](O)CC1=O)[C@H](C)C[C@@H]2OC [FK506, tacrolimus]
intrarenal ARNT and ALK3 transcription [1]: enhanced
formation of ARNT dimers in total kidney lysates (ARNT dimers [2]): increased formation of ARNT dimers
formation of ARNT dimers (ARNT dimers [3]): further enhanced
FK506 blood concentration ([4]; 0.02 mg/kg orally per day): 245 ± 73 pg/mL
FK506 blood concentration ([4]; 0.075 mg/kg orally per day): 452 ± 71 pg/mL
FK506 blood concentration ([4]; 0.2 mg/kg orally per day): 535 ± 36 pg/mL
